In publication PMC5691623 (Viruses, 2017):

System: SFV vector VA7-mCherry
Test: Live microscopy of SFV infection in Pa02C pancreatic cancer cells
Type: cell-based, Semliki Forest virus
Conditions: 1 µM, low moi (0.01), 96 h

## CC1(C)CCC(c2ccc(Cl)cc2)=C(CN2CCN(c3ccc(C(=O)NS(=O)(=O)c4ccc(N[C@H](CCN5CCOCC5)CSc5ccccc5)c(S(=O)(=O)C(F)(F)F)c4)cc3)CC2)C1 [ABT-263]
  effect on replication and spread of SFV: attenuated the replication and spread of the virus
